Experimental data reported in patent publication US10800791B2, “Triazole ACC inhibitors and uses thereof” (Gilead Apollo, LLC, priority 2015, dated 2020).
Values after ≈ are worked out from the molar mass of the structure shown. Where two headings read alike, the source gives them in different places. Blank lines part the entries; values can stand above or below the compound they belong to.

Experiments:
[1] = tested on: Diplodia maydis (Dm); experiment: Growth inhibition assay of fungal pathogens, Dm; format: cell-based; settings: Stenocarpella maydis, 48 h
Procedure: (§1) Compounds of the present invention were evaluated in a growth inhibition assay to determine the ability to control the growth of fungal pathogens, such as Botrtyis cinerea (Bc), Collectotrichum graminicola (Cg), Diplodia maydis (Dm), Fusarium moniliforme (Fm), Fusarium virguliforme (Fv), Phytophthora capsici (Pc), Rhizoctonia solani (Rs), and Septoria tritici (St).
(§2) Compounds to be tested were dissolved in DMSO at 2.5 mg/ml to produce compound stock solutions (“stocks”). Stocks were diluted with DMSO by a five-fold dilution in a 96-well stock plate, and two sets of final concentrations of 50, 10, and 2 ppm or 2, 0.4, and 0.08 ppm were obtained in vitro. A set of positive controls was also prepared, with various concentrations of Soraphen (2, 0.4, and 0.08 ppm), Metalaxyl (1.1, 0.22, and 0.04 ppm), and Metconazole (2, 0.4, and 0.08 ppm or 0.2, 0.04, and 0.008 ppm) after the five-fold dilutions. Negative controls on each plate included 2% DMSO, water, and a blank (media+2% DMSO).
(§3) Fungal spores were isolated from previously sub-cultured plates of Botrtyis cinerea (Bc), Collectotrichum graminicola (Cg), Diplodia maydis (Dm), Fusarium moniliforme (Fm), Fusarium virguliforme (Fv), Phytophthora capsici (Pc), and Septoria tritici (St). The isolated spores were diluted to individual concentrations with a 17% V8 liquid media. For Rhizoctonia solani (Rs) and Pythium irregulare, 1.5 mm mycelial plugs were used in place of spores and/4 Potato Dextrose Broth (PDB) was used for dilution. The spore concentrations and plug sizes were based on growth curves generated at 48 hours for each pathogen.
(§4) In a second 96-well plate, the spores or mycelial plugs, media, diluted compound solutions, and controls were combined. Once the compound was added, a true final concentration of compound in each well was measured by an OD600 reading, which adjusted for any compound precipitation that might have occurred in the well. Plate readings were repeated at both 24 and 48 hours. The blank negative control was used as a background subtraction. Additional visual ratings were performed at both 24 and 48 hours for checking on precipitation and confirming efficacy. Visual and OD600 ratings of the compounds at 48 hours were compared to the 2% DMSO negative control, and the percent of pathogen growth inhibition was determined based on those values.

[2] = tested on: Rhizoctonia solani (Rs); experiment: Growth inhibition assay of fungal pathogens, Rs; format: cell-based; settings: 48 h
Procedure: as §1, §2, §3, §4

[3] = tested on: Botrtyis cinerea (Bc); experiment: Growth inhibition assay of fungal pathogens, Bc; format: cell-based; settings: 48 h
Procedure: as §1, §2, §3, §4

[4] = tested on: Phytophthora capsici (Pc); experiment: Growth inhibition assay of fungal pathogens, Pc; format: cell-based; settings: 48 h
Procedure: as §1, §2, §3, §4

[5] = tested on: Fusarium virguliforme (Fv); experiment: Growth inhibition assay of fungal pathogens, Fv; format: cell-based; settings: 48 h
Procedure: as §1, §2, §3, §4

[6] = tested on: C. parapsilosis; experiment: Antifungal Activity Assay (broth microtiter MIC), C. parapsilosis; format: cell-based, Candida parapsilosis; settings: 3 replicates, MIC recorded at 48 h; for MIC: Lodderomyces parapsilosis, ATCC22019, 48 h, ATCC 22019, read-out: MIC, C. parapsilosis ATCC 22019
Procedure, shortened: (§5)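 Broth microdilution per CLSI M27-A3 in RPMI 1640+MOPS, inoculum 2.5×10^3 CFU/mL final from overnight Sabouraud dextrose agar cultures at 35° C. Compounds diluted from DMSO stock to 128 μg/mL in water. MIC read visually versus growth control at 48 h.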

[7] = tested on: Septoria tritici (St); experiment: Growth inhibition assay of fungal pathogens, St; format: cell-based; settings: Zymoseptoria tritici, 48 h
Procedure: as §1, §2, §3, §4

[8] = tested on: Fusarium moniliforme (Fm); experiment: Growth inhibition assay of fungal pathogens, Fm; format: cell-based; settings: for IC90: Fusarium verticillioides, 48 h, read-out: Concentration at 90% Inhibition Fm
Procedure: as §1, §2, §3, §4

[9] = tested on: C. albicans; experiment: Antifungal Activity Assay (broth microtiter MIC), C. albicans; format: cell-based, Candida albicans; settings: 3 replicates, MIC recorded at 48 h; for MIC: Candida albicans, ATCC90028, 48 h, ATCC 90028, read-out: MIC, C. albicans ATCC 90028
Procedure, shortened: as §5

[10] = tested on: Collectotrichum graminicola (Cg); experiment: Growth inhibition assay of fungal pathogens, Cg; format: cell-based; settings: 48 h
Procedure: as §1, §2, §3, §4

[11] = tested on: C. krusei; experiment: Antifungal Activity Assay (broth microtiter MIC), C. krusei; format: cell-based, Candida krusei; settings: 3 replicates, MIC recorded at 48 h; for MIC: Pichia kudriavzevii, ATCC6258, 48 h, ATCC 6258, read-out: MIC, C. krusei ATCC 6258
Procedure, shortened: as §5

[12] = target: human (hACC2) (Homo sapiens, UniProt O00763); experiment: In vitro ACC inhibition assay (ADP-Glo), hACC2; format: biochemical; settings: 5 nM ACC2, 20 μM ATP, 20 μM acetyl-CoA
Sequence of human (hACC2) (O00763 whole entry): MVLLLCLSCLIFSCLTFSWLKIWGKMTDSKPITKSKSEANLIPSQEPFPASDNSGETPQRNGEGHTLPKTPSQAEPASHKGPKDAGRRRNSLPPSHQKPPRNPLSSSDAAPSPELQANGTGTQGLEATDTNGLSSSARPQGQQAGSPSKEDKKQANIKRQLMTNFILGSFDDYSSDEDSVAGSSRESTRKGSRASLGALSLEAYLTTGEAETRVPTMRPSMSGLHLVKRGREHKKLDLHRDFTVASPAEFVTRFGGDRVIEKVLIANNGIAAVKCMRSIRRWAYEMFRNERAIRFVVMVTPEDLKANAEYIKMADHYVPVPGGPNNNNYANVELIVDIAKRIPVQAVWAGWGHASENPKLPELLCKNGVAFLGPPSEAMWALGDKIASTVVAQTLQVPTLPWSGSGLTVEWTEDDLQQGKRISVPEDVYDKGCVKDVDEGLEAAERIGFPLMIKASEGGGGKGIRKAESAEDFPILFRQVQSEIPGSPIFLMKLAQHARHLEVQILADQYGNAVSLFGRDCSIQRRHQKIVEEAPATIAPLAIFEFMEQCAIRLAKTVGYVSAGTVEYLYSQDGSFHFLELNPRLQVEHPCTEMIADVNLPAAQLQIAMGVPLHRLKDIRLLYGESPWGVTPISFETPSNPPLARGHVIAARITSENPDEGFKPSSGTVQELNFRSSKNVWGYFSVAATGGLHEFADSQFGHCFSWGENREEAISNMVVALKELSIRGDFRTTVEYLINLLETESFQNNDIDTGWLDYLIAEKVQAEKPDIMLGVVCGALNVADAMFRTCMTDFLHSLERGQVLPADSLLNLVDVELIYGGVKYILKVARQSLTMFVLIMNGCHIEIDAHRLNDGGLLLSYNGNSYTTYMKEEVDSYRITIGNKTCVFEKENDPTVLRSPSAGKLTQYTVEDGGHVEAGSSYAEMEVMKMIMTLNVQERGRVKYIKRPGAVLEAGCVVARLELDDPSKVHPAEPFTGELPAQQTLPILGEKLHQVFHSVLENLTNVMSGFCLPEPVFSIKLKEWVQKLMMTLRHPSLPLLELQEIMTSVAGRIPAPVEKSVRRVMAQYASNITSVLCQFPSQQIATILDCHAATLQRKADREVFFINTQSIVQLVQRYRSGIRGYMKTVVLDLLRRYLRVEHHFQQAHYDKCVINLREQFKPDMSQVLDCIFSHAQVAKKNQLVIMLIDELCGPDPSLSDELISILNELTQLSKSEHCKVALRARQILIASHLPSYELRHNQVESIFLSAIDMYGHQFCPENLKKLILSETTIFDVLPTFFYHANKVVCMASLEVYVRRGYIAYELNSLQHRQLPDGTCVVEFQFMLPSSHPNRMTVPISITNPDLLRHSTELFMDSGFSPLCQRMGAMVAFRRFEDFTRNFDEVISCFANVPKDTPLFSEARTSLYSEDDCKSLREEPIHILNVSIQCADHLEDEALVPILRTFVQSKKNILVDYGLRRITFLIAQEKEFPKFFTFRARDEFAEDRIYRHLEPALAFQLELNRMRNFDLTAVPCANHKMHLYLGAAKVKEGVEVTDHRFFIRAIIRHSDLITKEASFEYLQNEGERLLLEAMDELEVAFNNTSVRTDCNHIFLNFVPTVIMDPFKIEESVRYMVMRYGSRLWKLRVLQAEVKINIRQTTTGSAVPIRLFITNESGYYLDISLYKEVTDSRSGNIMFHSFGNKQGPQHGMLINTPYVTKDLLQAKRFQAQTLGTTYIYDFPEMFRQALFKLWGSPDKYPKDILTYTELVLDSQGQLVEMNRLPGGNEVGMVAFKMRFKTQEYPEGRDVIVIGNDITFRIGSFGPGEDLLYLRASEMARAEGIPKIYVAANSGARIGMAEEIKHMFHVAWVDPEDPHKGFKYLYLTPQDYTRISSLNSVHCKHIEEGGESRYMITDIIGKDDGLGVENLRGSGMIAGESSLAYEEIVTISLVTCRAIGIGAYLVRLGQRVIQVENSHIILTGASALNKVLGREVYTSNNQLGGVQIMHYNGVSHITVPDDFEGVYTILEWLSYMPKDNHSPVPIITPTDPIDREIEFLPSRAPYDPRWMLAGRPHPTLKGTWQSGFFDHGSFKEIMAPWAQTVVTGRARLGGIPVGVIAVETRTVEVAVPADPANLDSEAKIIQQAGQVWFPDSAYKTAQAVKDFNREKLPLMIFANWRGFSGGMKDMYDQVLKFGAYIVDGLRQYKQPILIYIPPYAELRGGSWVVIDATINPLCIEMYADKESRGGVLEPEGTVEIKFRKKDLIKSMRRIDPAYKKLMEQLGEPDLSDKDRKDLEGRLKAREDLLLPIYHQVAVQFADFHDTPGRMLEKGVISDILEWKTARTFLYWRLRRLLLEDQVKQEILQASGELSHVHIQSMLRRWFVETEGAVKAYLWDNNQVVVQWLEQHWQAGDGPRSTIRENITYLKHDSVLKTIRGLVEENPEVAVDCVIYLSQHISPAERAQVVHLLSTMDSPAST
Procedure: The detailed procedure is as follows. […] 10 μL ADP glo reagent was added. […] 20 μL kinase detection reagent was added.

[13] = target: fungal (fACC2) (UniProt Q00955); settings: read-out: fACC2 (in vitro ACC2 Inhibition Assay, IC50), ADP-Glo, 5 nM ACC2, 20 μM ATP, 20 μM acetyl-CoA
Sequence of fungal (fACC2) (Q00955 whole entry): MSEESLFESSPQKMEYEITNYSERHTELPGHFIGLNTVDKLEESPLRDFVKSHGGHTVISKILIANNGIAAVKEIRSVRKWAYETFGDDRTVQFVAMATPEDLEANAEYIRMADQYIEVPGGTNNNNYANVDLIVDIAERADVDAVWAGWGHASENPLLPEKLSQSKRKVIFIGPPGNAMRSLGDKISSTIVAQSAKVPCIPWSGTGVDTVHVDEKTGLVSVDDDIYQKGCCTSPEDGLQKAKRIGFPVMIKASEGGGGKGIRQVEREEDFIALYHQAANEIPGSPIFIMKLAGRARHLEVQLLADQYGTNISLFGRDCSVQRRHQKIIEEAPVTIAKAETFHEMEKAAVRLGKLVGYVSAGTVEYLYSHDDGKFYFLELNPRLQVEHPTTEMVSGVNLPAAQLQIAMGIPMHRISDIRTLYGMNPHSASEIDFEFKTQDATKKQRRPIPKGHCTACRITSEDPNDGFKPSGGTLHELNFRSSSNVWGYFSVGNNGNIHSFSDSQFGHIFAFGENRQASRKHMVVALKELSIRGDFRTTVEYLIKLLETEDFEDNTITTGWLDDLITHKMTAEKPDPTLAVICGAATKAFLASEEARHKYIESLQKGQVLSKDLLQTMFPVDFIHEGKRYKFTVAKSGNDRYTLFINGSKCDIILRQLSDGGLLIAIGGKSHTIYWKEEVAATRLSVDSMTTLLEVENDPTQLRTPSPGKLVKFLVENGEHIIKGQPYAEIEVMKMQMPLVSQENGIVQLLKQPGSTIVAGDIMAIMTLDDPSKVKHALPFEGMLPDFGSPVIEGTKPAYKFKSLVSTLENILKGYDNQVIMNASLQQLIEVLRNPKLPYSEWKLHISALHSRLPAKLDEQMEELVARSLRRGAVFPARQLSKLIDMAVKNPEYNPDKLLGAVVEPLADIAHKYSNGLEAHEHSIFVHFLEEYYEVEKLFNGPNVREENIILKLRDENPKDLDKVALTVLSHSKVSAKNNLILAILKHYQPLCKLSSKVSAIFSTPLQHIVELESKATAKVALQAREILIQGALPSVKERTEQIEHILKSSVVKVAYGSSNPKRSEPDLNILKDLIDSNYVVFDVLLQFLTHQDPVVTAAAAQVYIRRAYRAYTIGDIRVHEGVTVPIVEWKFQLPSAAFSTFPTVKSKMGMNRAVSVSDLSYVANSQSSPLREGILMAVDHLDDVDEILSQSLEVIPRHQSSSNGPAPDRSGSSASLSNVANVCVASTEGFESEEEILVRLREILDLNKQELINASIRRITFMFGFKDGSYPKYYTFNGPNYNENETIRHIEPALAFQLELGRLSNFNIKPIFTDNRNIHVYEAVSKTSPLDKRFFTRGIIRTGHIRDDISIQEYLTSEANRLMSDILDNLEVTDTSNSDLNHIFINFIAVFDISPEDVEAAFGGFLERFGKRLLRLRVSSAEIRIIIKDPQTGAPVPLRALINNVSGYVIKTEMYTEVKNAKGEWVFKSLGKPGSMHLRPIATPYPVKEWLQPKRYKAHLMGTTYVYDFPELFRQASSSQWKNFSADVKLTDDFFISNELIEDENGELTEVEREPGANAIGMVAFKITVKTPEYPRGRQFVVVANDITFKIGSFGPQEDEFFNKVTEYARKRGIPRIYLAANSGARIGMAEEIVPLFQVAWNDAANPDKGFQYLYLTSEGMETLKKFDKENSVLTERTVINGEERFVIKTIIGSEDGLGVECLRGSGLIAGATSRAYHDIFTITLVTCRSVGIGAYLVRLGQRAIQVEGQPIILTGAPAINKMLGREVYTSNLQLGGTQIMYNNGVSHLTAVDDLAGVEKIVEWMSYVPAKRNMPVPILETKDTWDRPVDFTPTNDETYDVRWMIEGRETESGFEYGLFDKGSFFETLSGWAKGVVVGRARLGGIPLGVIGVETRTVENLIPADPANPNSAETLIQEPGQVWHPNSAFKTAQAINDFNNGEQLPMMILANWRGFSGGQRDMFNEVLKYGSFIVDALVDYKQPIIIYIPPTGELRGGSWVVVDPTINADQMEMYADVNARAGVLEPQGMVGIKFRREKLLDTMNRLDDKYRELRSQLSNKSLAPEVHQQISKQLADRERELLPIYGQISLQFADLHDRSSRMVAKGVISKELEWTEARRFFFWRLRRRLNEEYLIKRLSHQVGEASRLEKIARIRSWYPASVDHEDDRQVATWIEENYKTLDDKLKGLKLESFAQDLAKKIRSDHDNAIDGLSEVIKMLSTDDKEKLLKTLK
Procedure: An exemplary procedure for the in vitro ACC inhibition assay, which can be used to determine the inhibitory action of compounds of the invention toward either human (hACC2) or fungal (fACC2), follows. The ADP-Glo™ Kinase Assay kit from Promega was used. The ADP-Glo™ Kinase Assay is a luminescent ADP detection assay to measure enzymatic activity by quantifying the amount of ADP produced during an enzyme reaction. The assay is performed in two steps; first, after the enzyme reaction, an equal volume of ADP-Glo™ Reagent is added to terminate the reaction and deplete the remaining ATP. Second, the Kinase Detection Reagent is added to simultaneously convert ADP to ATP and allow the newly synthesized ATP to be measured using a luciferase/luciferin reaction. Luminescence can be correlated to ADP concentrations by using an ATP-to-ADP conversion curve. […] 50 μL of the compound being tested (600 μM in DMSO) was added to a 384-well dilution plate. The compound was diluted 1:3 in succession in DMSO for each row for 11 wells. 0.5 μL ACC2 working solution was added to 384-well white Optiplate assay plate. 0.5 μL diluted compound solution in each column from step 2 was added to assay plate, each row containing 2 replicates. […] The plates were incubated at room temperature for 15 minutes. 5 μL substrate working solution was added to each well to initiate reaction. Final ACC2 reaction concentrations consist of: 5 nM ACC2, 20 μM ATP, 20 μM acetyl-CoA, 12 mM NaHCO3, 0.01% Brij35, 2 mM DTT, 5% DMSO, test compound concentrations: 30 μM, 10 μM, 3.33 μM, 1.11 μM, 0.37 μM, 0.123 μM, 0.0411 μM, 0.0137 μM, 0.00457 μM, 0.00152 μM, and 0.00051 μM. Plates were incubated at room temperature for 60 minutes. 10 μL ADP glo reagent was added. Plates were incubated at room temperature for 40 minutes. 20 μL kinase detection reagent was added. Plates were incubated at room temperature for 40 minutes, and then read on a Perkin Elmer EnVision 2104 plate reader for luminescence as Relative Light Units (RLU).
Data for each concentration, as well as the positive and negative controls were averaged, and the standard deviation calculated. Percent inhibition was calculated by the formula: 100×(average negative control−compound)/(average negative control−average positive control). The IC50 for each compound was calculated by fitting the data with a non-linear regression equation: Y=Bottom+(Top−Bottom)/(1+10 ((Log IC50−X)*HillSlope)), where X is the log of compound concentration and Y is percent inhibition.

[14] = Fusarium moniliforme, growth inhibition at 48 hours vs 2% DMSO control

MIC ([6]; Table 3a): 2.1 to 4 µg/mL (≈ 3.5 to 6.67 µM)
MIC ([6]; Table 3b (additional results)): 2.01 to 4 µg/mL (≈ 3.35 to 6.67 µM)
MIC ([9]; Table 3a): 2.1 to 4 µg/mL (≈ 3.5 to 6.67 µM)
MIC ([9]; Table 3b (additional results)): 1.01 to 2 µg/mL (≈ 1.68 to 3.34 µM)
MIC ([11]; Table 3a): 2.1 to 4 µg/mL (≈ 3.5 to 6.67 µM)
MIC ([11]; Table 3b (additional results)): 1.01 to 2 µg/mL (≈ 1.68 to 3.34 µM)
IC50 ([12]; Table 2a): 1 to 5 nM
IC50 ([12]; Table 2b, additional results): 1 to 5 nM
Compound: COc1ccc(F)cc1[C@H](Cn1c(=O)n(C(C)(C)C(=O)O)c(=O)c2c(C)c(-n3nccn3)sc21)OC1CCC(=O)CC1 [Compound I-30, (R)-2-(1-(2-(5-fluoro-2-methoxyphenyl)-2-((4-oxocyclo-hexyl)oxy)ethyl)-5-methyl-2,4-dioxo-6-(2H-1,2,3-triazol-2-yl)-1,4-dihydrothieno[2,3-d]pyrimidin-3(2H)-yl)-2-methylpropanoic acid]
IC90 ([1]; Diplodia maydis, growth inhibition at 48 hours vs 2% DMSO control, read-out: Concentration at 90% Inhibition Dm): > 50 µg/mL
IC90 ([2]; mycelial plugs, growth inhibition at 48 hours vs 2% DMSO control, read-out: Concentration at 90% Inhibition Rs): 10 µg/mL (≈ 16.7 µM)
IC90 ([3]; Botrtyis cinerea, growth inhibition at 48 hours vs 2% DMSO control, read-out: Concentration at 90% Inhibition Bc): 10 µg/mL (≈ 16.7 µM)
IC90 ([4]; growth inhibition at 48 hours vs 2% DMSO control, read-out: Concentration at 90% Inhibition Pc): > 50 µg/mL
IC90 ([5]; growth inhibition at 48 hours vs 2% DMSO control, read-out: Concentration at 90% Inhibition Fv): > 50 µg/mL
IC90 ([7]; Septoria tritici, growth inhibition at 48 hours vs 2% DMSO control, read-out: Concentration at 90% Inhibition St): > 50 µg/mL
IC90 [8, 14]: 2 µg/mL (≈ 3.34 µM)
IC90 ([10]; Collectotrichum graminicola, growth inhibition at 48 hours vs 2% DMSO control, read-out: Concentration at 90% Inhibition Cg): > 50 µg/mL

Compound: COCCO[C@@H](Cn1c(=O)n([C@@H](C)C(=O)NC(C)C)c(=O)c2c(C)c(-n3nccn3)sc21)c1cc(F)ccc1OC [Compound I-66, (S)-2-(1-((R)-2-(5-fluoro-2-methoxyphenyl)-2-(2-methoxy-ethoxy)ethyl)-5-methyl-2,4-dioxo-6-(2H-1,2,3-triazol-2-yl)-1,4-dihydrothieno[2,3-d]pyrimidin-3(2H)-yl)-N-isopropylpropanamide]
IC90 ([1]; read-out: Concentration at 90% Inhibition Dm, Diplodia maydis, growth inhibition at 48 hours vs 2% DMSO control): 0.4 µg/mL (≈ 0.68 µM)
IC90 ([1]; read-out: Concentration at 90% Inhibition Dm, Diplodia maydis, growth inhibition vs 2% DMSO control at 48 hours): 0.4 µg/mL (≈ 0.68 µM)
IC90 ([2]; read-out: Concentration at 90% Inhibition Rs, Rhizoctonia solani, mycelial plugs, growth inhibition at 48 hours vs 2% DMSO control): 0.4 µg/mL (≈ 0.68 µM)
IC90 ([2]; read-out: Concentration at 90% Inhibition Rs, Rhizoctonia solani, mycelial plugs, growth inhibition vs 2% DMSO control at 48 hours): 0.08 µg/mL (≈ 0.136 µM)
IC90 ([3]; read-out: Concentration at 90% Inhibition Bc, Botrtyis cinerea, growth inhibition at 48 hours vs 2% DMSO control): 2 µg/mL (≈ 3.4 µM)
IC90 ([3]; read-out: Concentration at 90% Inhibition Bc, Botrtyis cinerea, growth inhibition vs 2% DMSO control at 48 hours): 2 µg/mL (≈ 3.4 µM)
IC90 ([4]; read-out: Concentration at 90% Inhibition Pc, Phytophthora capsici, growth inhibition at 48 hours vs 2% DMSO control): 10 µg/mL (≈ 17 µM)
IC90 ([4]; read-out: Concentration at 90% Inhibition Pc, Phytophthora capsici, growth inhibition vs 2% DMSO control at 48 hours): > 50 µg/mL
IC90 ([5]; read-out: Concentration at 90% Inhibition Fv, Fusarium virguliforme, growth inhibition at 48 hours vs 2% DMSO control): 0.4 µg/mL (≈ 0.68 µM)
IC90 ([5]; read-out: Concentration at 90% Inhibition Fv, Fusarium virguliforme, growth inhibition vs 2% DMSO control at 48 hours): 0.4 µg/mL (≈ 0.68 µM)
MIC, C. parapsilosis ATCC 22019 ([6]; Table 3a): B (MIC of 1.1-2.0 μg/mL)
MIC, C. parapsilosis ATCC 22019 ([6]; Table 3b (additional results)): B (MIC of 1.01-2.0 μg/mL)
IC90 ([7]; read-out: Concentration at 90% Inhibition St, Septoria tritici, growth inhibition at 48 hours vs 2% DMSO control): > 50 µg/mL
IC90 ([7]; read-out: Concentration at 90% Inhibition St, Septoria tritici, growth inhibition vs 2% DMSO control at 48 hours): > 50 µg/mL
Concentration at 90% Inhibition Fm [8, 14]: AA (compound concentration of 0.08 ppm at 90% inhibition of fungal pathogens)
IC90 [8]: 0.08 µg/mL (≈ 0.136 µM)
IC50 ([13]; Table 2a): 1 to 5 nM
IC50 ([13]; Table 2b, additional results): 1 to 5 nM
MIC, C. albicans ATCC 90028 ([9]; Table 3a): C (MIC of 2.1-4.0 μg/mL)
MIC, C. albicans ATCC 90028 ([9]; Table 3b (additional results)): D (MIC of >4.01 μg/mL)
IC90 ([10]; read-out: Concentration at 90% Inhibition Cg, Collectotrichum graminicola, growth inhibition at 48 hours vs 2% DMSO control): 0.4 µg/mL (≈ 0.68 µM)
IC90 ([10]; read-out: Concentration at 90% Inhibition Cg, Collectotrichum graminicola, growth inhibition vs 2% DMSO control at 48 hours): 0.4 µg/mL (≈ 0.68 µM)
MIC, C. krusei ATCC 6258 ([11]; Table 3a): B (MIC of 1.1-2.0 μg/mL)
MIC, C. krusei ATCC 6258 ([11]; Table 3b (additional results)): C (MIC of 2.01-4.0 μg/mL)
IC50 ([12]; Table 2a): 5 to 10 nM
IC50 ([12]; Table 2b, additional results): 5 to 10 nM
